By inhibition is commonly meant the relative decrease from the control value, in per cent. For orientation: IC50 means the concentration that gives 50% inhibition.

Where two headings read alike, the source gives them in different places.

In experiment [1] the target is T1, COX-1 (Ovis aries, UniProt P05979).
T1 construct: purchased Cayman 560131
T1 sequence (P05979 25-600): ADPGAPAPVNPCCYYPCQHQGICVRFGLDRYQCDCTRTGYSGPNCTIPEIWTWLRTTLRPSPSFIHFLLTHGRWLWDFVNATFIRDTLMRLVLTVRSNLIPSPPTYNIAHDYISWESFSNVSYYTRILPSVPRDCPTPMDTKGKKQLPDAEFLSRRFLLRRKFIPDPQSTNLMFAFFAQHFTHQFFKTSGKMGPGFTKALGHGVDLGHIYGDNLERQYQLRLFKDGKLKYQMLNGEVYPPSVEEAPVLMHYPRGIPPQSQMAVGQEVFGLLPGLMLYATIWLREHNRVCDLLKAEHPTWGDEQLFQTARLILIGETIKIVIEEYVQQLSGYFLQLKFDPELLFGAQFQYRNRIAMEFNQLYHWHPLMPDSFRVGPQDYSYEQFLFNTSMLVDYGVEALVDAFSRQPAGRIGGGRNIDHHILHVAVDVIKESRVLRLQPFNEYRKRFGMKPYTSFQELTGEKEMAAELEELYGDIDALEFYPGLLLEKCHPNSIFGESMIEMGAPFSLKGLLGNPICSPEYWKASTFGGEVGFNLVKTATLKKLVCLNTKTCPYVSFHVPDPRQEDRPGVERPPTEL
The experiment is described as follows: Cyclooxygenase COX-1 inhibitory assay (Cayman COX inhibitor assay kit). The note with it: mean ± SD, n=3; for inhibition at 2.5 µg/mL / inhibition at 5 µg/mL / inhibition at 7.5 µg/mL / inhibition at 10 µg/mL: read-out: Percentage inhibition COX1. Format: biochemical, ovine. The method, then: (§1) To 10 µl of either COX1 or COX2 added 0.1 M Tris–HCl buffer (960 µl) and different known concentrations of test samples and incubated at 37 °C for 10 min. Later 10 µl of 100 µM arachidonic acid, after 2 min 1 M HCl of 50 µl and Ellman’s reagent, were added. The absorbance was measured spectrophotometrically at 410 nm against the blank. The percentage of inhibition was deliberated with the absorbance values, and IC50 values were calculated by linear regression.

In experiment [2] the target is T2, COX-2 (Homo sapiens, UniProt P35354).
T2 construct: purchased Cayman 560131
T2 sequence (P35354 18-604): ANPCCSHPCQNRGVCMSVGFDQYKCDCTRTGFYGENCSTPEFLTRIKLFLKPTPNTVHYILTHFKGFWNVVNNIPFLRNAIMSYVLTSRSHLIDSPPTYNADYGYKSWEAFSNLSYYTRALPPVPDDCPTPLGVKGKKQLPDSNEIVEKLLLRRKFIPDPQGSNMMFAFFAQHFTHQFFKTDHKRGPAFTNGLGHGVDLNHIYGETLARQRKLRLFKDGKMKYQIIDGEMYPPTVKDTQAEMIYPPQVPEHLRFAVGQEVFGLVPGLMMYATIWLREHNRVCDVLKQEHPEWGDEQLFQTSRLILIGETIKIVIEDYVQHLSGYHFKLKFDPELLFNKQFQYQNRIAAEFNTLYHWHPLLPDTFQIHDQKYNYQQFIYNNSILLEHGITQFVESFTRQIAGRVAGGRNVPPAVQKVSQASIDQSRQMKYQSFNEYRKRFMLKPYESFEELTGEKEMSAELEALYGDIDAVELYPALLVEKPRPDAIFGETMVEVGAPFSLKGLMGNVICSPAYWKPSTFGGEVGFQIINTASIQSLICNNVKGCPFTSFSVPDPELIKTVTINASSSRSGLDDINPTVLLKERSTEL
The experiment is described as follows: Cyclooxygenase COX-2 inhibitory assay (Cayman COX inhibitor assay kit). Format: biochemical. The note with it: mean ± SD, n=3; for inhibition at 2.5 µg/mL / inhibition at 5 µg/mL / inhibition at 7.5 µg/mL / inhibition at 10 µg/mL: read-out: Percentage inhibition COX2. How it is done:
as §1

Experiment [3] addresses T3, 5-LOX (human recombinant) (Homo sapiens, UniProt P09917).
T3 construct: purchased Sigma Aldrich 437996
T3 sequence (P09917 1-674): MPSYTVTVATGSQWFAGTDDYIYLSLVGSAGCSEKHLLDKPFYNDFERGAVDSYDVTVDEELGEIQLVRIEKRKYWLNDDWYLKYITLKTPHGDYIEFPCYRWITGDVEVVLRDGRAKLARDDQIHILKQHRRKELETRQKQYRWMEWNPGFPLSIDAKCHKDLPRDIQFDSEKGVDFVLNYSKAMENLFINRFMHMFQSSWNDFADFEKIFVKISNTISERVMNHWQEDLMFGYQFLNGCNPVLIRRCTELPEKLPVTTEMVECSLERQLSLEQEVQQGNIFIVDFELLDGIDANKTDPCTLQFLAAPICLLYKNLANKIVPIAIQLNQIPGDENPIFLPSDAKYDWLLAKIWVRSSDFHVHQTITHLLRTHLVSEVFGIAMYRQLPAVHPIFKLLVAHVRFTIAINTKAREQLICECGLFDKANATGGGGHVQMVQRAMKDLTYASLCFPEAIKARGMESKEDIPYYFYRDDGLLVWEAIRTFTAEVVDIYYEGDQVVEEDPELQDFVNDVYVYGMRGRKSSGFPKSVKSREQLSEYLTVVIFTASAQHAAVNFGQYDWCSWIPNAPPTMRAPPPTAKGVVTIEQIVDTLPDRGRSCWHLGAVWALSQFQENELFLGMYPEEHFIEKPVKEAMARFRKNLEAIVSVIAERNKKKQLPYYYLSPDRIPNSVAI
Briefly: 5-lipoxygenase inhibitory assay (5-LOX assay kit). Particulars: mean ± SD, n=3; for inhibition at 2.5 µg/mL / inhibition at 5 µg/mL / inhibition at 7.5 µg/mL / inhibition at 10 µg/mL: read-out: Percentage inhibition 5-LOX. Format: biochemical. The method, then:
To 90 µl of 5-LOX enzyme solution added different test sample concentrations, 100 µl of de chromogen, and finally added 10 µl of the substrate (arachidonic acid) and gently shake or 10 min and absorbance was measured at 490 nm against the blank. The % inhibition was deliberated with the absorbance values by which IC50 values were calculated by linear regression.

[4] abbreviates: linear regression, read-out: IC50 values COX1 (converted).
[5] abbreviates: linear regression, read-out: IC50 values COX2 (converted).
Where [6] appears, read: IC50 5-LOX (concentration required for 50% inhibition), Fig. 2.
[7] abbreviates: linear regression, read-out: IC50 values 5-LOX (converted).

Regarding `CC1=CCCC2C1(C)CCC(C)C2(C)CCC(C=O)=CC(=O)O` (stereo not shown) [Compound 1, 16-oxo-cleroda-3,13(14)E-dien-15-oic acid], the inhibition at 2.5 µg/mL in experiment [1] came to 21.8 ± 1.55%; in experiment [2] it was 10.7 ± 2.91%; in experiment [3] it was 13.4 ± 0.72%. Also, the inhibition at 5 µg/mL in experiment [1] is 40.3 ± 3.77%; in experiment [2] it was 23.4 ± 3.07%; in experiment [3], 25.7 ± 2.74%. In addition, the inhibition at 7.5 µg/mL in experiment [1] is 47.1 ± 2.71%; in experiment [2], 42.8 ± 0.72%; in experiment [3] it was 41.1 ± 1.43%. In addition, the inhibition at 10 µg/mL worked out at 60.4 ± 4.48% in experiment [1], 62.9 ± 3.84% in experiment [2] and 65.4 ± 0.93% in experiment [3]. The half-inhibitory concentration (IC50) in experiment [1] (Fig. 2, read-out: IC50 COX-1) was 25.1 ± 0.99 µM; in experiment [1] (setting [4]), 25.1 µM; in experiment [2] (Fig. 2, read-out: IC50 COX-2) it was 26.4 ± 0.45 µM; in experiment [2] (setting [5]) it was 26.4 µM; in experiment [3] (setting [6]), 26.4 ± 0.39 µM; in experiment [3] (setting [7]) it was 26.4 µM.
`CC1=CCCC2C1(C)CCC(C)C2(C)CCC1=CC(=O)OC1O` (stereo not drawn) [Compound 5, 16α-hydroxy-cleroda-3,13(14)Z-dien-15,16-olide]: the inhibition at 2.5 µg/mL was 42.3 ± 2.05% in experiment [1], 46.6 ± 0.9% in experiment [2] and 30 ± 1.04% in experiment [3]. In addition, the inhibition at 5 µg/mL was 79.5 ± 1.01% in experiment [1], 57.2 ± 1.57% in experiment [2] and 54.1 ± 1.1% in experiment [3]. Besides, the inhibition at 7.5 µg/mL in experiment [1] was 86.5 ± 1.27%; in experiment [2] it was 69.3 ± 3.66%; in experiment [3] it was 67.2 ± 4.61%. The inhibition at 10 µg/mL in experiment [1] was determined as 92.9 ± 2.46%; in experiment [2], 79.4 ± 4.39%; in experiment [3] it was 75.8 ± 2.97%. In addition, the IC50 in experiment [1] (Fig. 2, read-out: IC50 COX-1) is 9.46 ± 0.33 µM; in experiment [1] (setting [4]) it was 9.45 µM; in experiment [2] (Fig. 2, read-out: IC50 COX-2), 10.3 ± 0.26 µM; in experiment [2] (setting [5]) it was 10.3 µM; in experiment [3] (setting [6]), 14.4 ± 0.32 µM; in experiment [3] (setting [7]), 14.4 µM.
With `O=C(O)Cc1ccccc1Nc1c(Cl)cccc1Cl` [Diclofenac, reference compound], in experiment [3], the inhibition at 2.5 µg/mL came out at 12.4 ± 1.49%, the inhibition at 5 µg/mL worked out at 23.1 ± 4.16%, the inhibition at 7.5 µg/mL stood at 42.8 ± 1.82% and the inhibition at 10 µg/mL turned out to be 64.4 ± 0.72%.
Turning to `C=C1CCCC2C1(C)CCC(C)C2(C)CCC1=CC(=O)OC1O` (stereo not shown) [Compound 3, 16-hydroxy-cleroda-4(18),13-dien-16,15-olide], the figures for the inhibition at 2.5 µg/mL in experiment [1], in experiment [2] and in experiment [3] were 38.1 ± 0.72%, 48.8 ± 0.96% and 34.7 ± 1.47%, respectively. The inhibition at 5 µg/mL in experiment [1] was determined as 61.5 ± 1.84%; in experiment [2] it was 63.2 ± 1.41%; in experiment [3], 59.3 ± 0.66%. Further, the inhibition at 7.5 µg/mL in experiment [1] is 68.3 ± 2.99%; in experiment [2], 73.3 ± 1.15%; in experiment [3] it was 77.5 ± 0.92%. The values for the inhibition at 10 µg/mL in experiment [1], in experiment [2] and in experiment [3] were 83.9 ± 2.27%, 82.97 ± 0.44% and 85 ± 1.05%, respectively. For the same compound, the IC50 was 11.8 ± 0.19 µM in experiment [1] (Fig. 2, read-out: IC50 COX-1); 11.8 µM in experiment [1] (setting [4]); 8.49 ± 0.55 µM in experiment [2] (Fig. 2, read-out: IC50 COX-2); 8.51 µM in experiment [2] (setting [5]); 12.7 ± 0.21 µM in experiment [3] (setting [6]); 12.7 µM in experiment [3] (setting [7]).
In the case of `C=C1C(O)CCC2C1(C)CCC(C)C2(C)CCC1=CC(=O)OC1O` (stereo not drawn) [Compound 4, 3α,16α-dihydroxy-cleroda-4(18),13(14)Z-dien-15,16-olide], the figures for the inhibition at 2.5 µg/mL in experiment [1], in experiment [2] and in experiment [3] were 40.8 ± 0.79%, 36.8 ± 2.52% and 23.2 ± 2.28%, respectively. Also, the figures for the inhibition at 5 µg/mL in experiment [1], in experiment [2] and in experiment [3] were 61.1 ± 0.69%, 55.21 ± 0.43% and 44.3 ± 1.68%, respectively. Also, the results for the inhibition at 7.5 µg/mL in experiment [1], in experiment [2] and in experiment [3] were 72.3 ± 3.77%, 67.1 ± 2.47% and 55.4 ± 0.65%, respectively. The inhibition at 10 µg/mL in experiment [1] came to 79.5 ± 2.53%; in experiment [2], 75.1 ± 2.73%; in experiment [3], 67.2 ± 2.67%. For the same compound, the IC50 in experiment [1] (Fig. 2, read-out: IC50 COX-1) was 10.8 ± 0.17 µM; in experiment [1] (setting [4]), 10.9 µM; in experiment [2] (Fig. 2, read-out: IC50 COX-2), 12.8 ± 0.21 µM; in experiment [2] (setting [5]), 12.8 µM; in experiment [3] (setting [6]), 16.9 ± 0.56 µM; in experiment [3] (setting [7]), 17 µM.
Consider `CC1=CCCC2C1(C)CCC(C)C2(C)CCC(=CC(=O)O)CO` (stereo not shown) [Compound 2, 16-hydroxy-cleroda-3,13-dien-15-oic acid], for which the inhibition at 2.5 µg/mL stood at 16.3 ± 3% in experiment [1], 34.5 ± 2.11% in experiment [2] and 12.5 ± 1.45% in experiment [3]. The values for the inhibition at 5 µg/mL in experiment [1], in experiment [2] and in experiment [3] were 28.3 ± 3.1%, 59.2 ± 0.77% and 24.5 ± 1.92%, respectively. Also, the inhibition at 7.5 µg/mL in experiment [1] came to 42.5 ± 1.68%; in experiment [2], 77.4 ± 0.9%; in experiment [3], 40 ± 4.41%. For the same compound, the inhibition at 10 µg/mL in experiment [1] came to 50.9 ± 0.6%; in experiment [2], 85 ± 1.17%; in experiment [3] it was 51.2 ± 1.35%. Also, the IC50 in experiment [1] (Fig. 2, read-out: IC50 COX-1) is 30.44 ± 0.3 µM; in experiment [1] (setting [4]), 30.4 µM; in experiment [2] (Fig. 2, read-out: IC50 COX-2) it was 12.7 ± 0.34 µM; in experiment [2] (setting [5]), 12.7 µM; in experiment [3] (setting [6]) it was 30.5 ± 0.53 µM; in experiment [3] (setting [7]), 30.5 µM.

The values above are taken from PMC7524750, “Dual COX and 5-LOX inhibition by clerodane diterpenes from seeds of Polyalthia longifolia (Sonn.) Thwaites” (Scientific Reports, 2020).
